Where two headings read alike, the source gives them in different places.
Columns and labels:
COX2 (h) = biological target: T1, COX2 (h) (Homo sapiens, UniProt P35354); experiment: Pharmacology profiling: COX2 (h); format: biochemical; conditions: for inhibition at 10 µM: read-out: COX2 (h): % inhibition @10 µM
T1 sequence (P35354 18-604): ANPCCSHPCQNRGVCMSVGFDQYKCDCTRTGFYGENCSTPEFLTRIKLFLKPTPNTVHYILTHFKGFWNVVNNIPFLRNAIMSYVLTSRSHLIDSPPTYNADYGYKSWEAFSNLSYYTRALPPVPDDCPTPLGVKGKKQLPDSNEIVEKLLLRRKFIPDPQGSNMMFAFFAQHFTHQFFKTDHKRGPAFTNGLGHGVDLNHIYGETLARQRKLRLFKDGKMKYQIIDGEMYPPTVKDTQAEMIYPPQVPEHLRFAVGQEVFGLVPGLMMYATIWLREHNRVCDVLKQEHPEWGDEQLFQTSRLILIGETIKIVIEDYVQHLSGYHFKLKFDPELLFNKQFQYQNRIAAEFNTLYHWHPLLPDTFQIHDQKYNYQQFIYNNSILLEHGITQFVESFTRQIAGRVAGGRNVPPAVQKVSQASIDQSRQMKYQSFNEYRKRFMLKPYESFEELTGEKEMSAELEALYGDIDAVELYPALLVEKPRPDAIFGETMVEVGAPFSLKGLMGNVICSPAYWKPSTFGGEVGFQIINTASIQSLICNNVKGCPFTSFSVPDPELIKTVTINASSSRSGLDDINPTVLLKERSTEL
Description: Cosmetics Europe’s Systemic Toxicity Taskforce (SysTox-TF) has extended the list of targets in an in vitro screen originally described by [Bowes et al. (2012)] to assess the effects of cosmetic chemicals on target molecules. The approach was based on the knowledge that various targets of pharmacological interest have been linked to human adverse drug reactions, and that screening of these has helped the pharma industry in identifying drug candidates with acceptable human safety profiles ([Bowes et al., 2012]; [Scott et al., 2022]). The methods used by the pharma industry were adapted for use in cosmetic chemical NGRA. A final list of 83 target assays were considered suitable for cosmetic chemical safety testing (see Supplementary Materials S1.7). The targets were receptors, ion channels, transporters and enzymes identified by the pharma industry as linked to human adverse drug reactions, supplemented by additional targets that have been reasoned to be linked to systemic toxicities of chemicals in animals. Chemicals that are flagged for a target are tested in follow-up dose-response assays to establish potency of the interaction. […]. [Valentin et al., 2018]; [Dodson et al., 2021]). […].
assay’s reference compound was set to 100%. For antagonist assays, the basal signal (exposure to fixed concentration of agonist only) was set to 100%. Activity of the samples was scaled accordingly, […]
Using these graphs, lowest […]
compound activity for antagonist assays.
S1.7. Pharmacology profiling assays […]
reasoned to link to pathological effects. […]
around the control level. […]
determine the potency (IC50).
Supplementary Table S4 Pharmacology profiling assay panel. […]

ER = system: ER; design: method as in Opera; conditions: experimental call listed in the Opera output; ref Opera; cited from earlier work
dogs = conditions: male and female dogs; ref McClain et al. 2005; cited from earlier work
MAO-A = biological target: T2, MAO-A (Rattus norvegicus, UniProt P21396); experiment: Pharmacology profiling: MAO-A (antagonist RL); format: binding; conditions: for inhibition at 10 µM: read-out: MAO-A (antagonist RL): % inhibition @10 µM
T2 sequence (P21396 1-526): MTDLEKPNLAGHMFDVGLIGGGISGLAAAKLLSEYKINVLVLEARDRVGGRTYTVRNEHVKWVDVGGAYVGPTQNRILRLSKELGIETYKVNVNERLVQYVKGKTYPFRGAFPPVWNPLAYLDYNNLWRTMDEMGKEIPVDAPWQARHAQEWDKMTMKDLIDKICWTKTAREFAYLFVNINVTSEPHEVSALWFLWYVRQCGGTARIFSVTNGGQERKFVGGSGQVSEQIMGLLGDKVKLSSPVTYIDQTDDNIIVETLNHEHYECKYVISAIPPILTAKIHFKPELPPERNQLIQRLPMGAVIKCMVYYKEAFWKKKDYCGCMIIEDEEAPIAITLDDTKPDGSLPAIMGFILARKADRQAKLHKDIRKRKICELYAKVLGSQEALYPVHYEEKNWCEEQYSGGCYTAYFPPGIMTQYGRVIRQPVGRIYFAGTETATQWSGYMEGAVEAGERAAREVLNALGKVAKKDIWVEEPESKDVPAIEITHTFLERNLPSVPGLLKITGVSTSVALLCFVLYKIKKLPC
Description: (§1) targets. The list of targets included the original panel of 44 targets (including receptors, ion channels,
(§2) transporters and enzymes) recommended by 4 major pharmaceutical companies as significant
(§3) reasoned to link to pathological effects. Results showing an inhibition or stimulation higher than 50%
(§4) are considered to represent significant effects (i.e. a “hit”).
(§5) and 50% are indicative of weak to moderate effects and results showing an inhibition (or stimulation)
(§6) around the control level. For several targets, additional concentration effect assays were conducted to
(§7) determine the potency (IC50). The concentrations tested (in duplicate) ranged between 30 nM and 100

Adenosine A1 (h) = biological target: T3, Adenosine A1 (h) (Homo sapiens, UniProt P30542); experiment: Pharmacology profiling: Adenosine A1 (h) (antagonist RL); format: binding; conditions: for inhibition at 10 µM: read-out: Adenosine A1 (h) (antagonist RL): % inhibition @10 µM
T3 sequence (P30542 1-326): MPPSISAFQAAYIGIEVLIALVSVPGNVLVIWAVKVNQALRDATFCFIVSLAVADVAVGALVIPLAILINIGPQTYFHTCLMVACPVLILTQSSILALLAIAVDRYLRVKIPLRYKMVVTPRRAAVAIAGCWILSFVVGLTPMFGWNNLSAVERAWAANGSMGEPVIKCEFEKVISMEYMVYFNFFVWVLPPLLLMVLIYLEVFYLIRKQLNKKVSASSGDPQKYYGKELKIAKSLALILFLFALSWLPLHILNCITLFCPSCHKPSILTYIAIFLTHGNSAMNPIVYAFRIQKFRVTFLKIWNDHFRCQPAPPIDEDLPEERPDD
Description: as §1, §2, §3, §4, §5, §6, §7

MCF-7 cells = experiment: Transcriptomics (TempO-Seq, BMD analysis) in MCF-7 cells; format: cell-based, human; conditions: for Lowest median BMD, 3 genes passing all filters / Lowest median BMD, >5 genes passing all filters / BMD relating to estrogen effects: MCF-7, 24 h; for Lowest median BMD, 3 genes passing all filters / Lowest median BMD, >5 genes passing all filters: pathway differs per chemical; for BMD relating to estrogen effects: pathway named in the cell
Description: These differed with respect to the number of genes passing all filters in each pathway (3 versus 5 genes). […] Therefore, we captured pathways which fulfilled both criteria.
HepG2 (human hepatoblastoma) , MCF-7 (human breast adenocarcinoma) cells supplied by
Public Health England European Collection of Cell Cultures (ECACC, Salisbury, UK). Differentiated
HepaRG cells (HPR116, Lot HPR116239 -TA08) were from Biopredic International (Rennes, France).
Test chemicals were prepared in DMSO as serial dilutions, resulting in concentrations in media of
biological replicates were treated with the appropriate dose of co mpound for 24 h prior to cell lysis.
Biospyder human whole genome panel version 1 (https://biospyder.com).
Gene normalization and analysis
expression values for each probe were normalized by applying DESEQ2 normalization. A pseudo-
read-count of 1.0 was added to each normalized expression value, and then the values were log2
transformed . Analyses performed included Gene and Pathway, Dose Response and Network
monotonic increasing/decreasing trend were those which confirmed to the criteria : William’s trend
Those genes were then used in categorical (pathway) analysis for the Gene Ontology (GO) terms and
REACTOME pathways. Significant dose responsive pathways were determined according to : Fisher’s

COX1 (h) = COX1 (h) (Homo sapiens, UniProt P23219); experiment: Pharmacology profiling: COX1 (h); format: biochemical
Description: as §1, §2, §3, §4, §5, §6, §7

Transthyretin (TTR) = Transthyretin (TTR) (Homo sapiens, UniProt P02766)
Description: DMSO (1% compound stock in incubation mixture). The incubation mixture was transferred to 96 -
was measured on a Berthold luminometer.
Serial dilutions of the compounds were incubated in Tris -buffer (pH 8.0) overnight at 4°C in the
incubation mixture). After incubation, TTR-bound and free T4 were separated on a Bio-Gel P-6DG
column. The eluate was added to assay medium after which TRβ CALUX cells were exposed for 24 h
(see CALUX bioassays). For this TRβ CALUX exposure, serum-free assay medium was used.

[1] = for BER, Cmax, total CI5%: PoD 10 nM
Description: For human exposure, the aim is to estimate a safe dose when used in a body lotion or face cream. […] Therefore, metabolism was considered by incorporating a model to characterize the rate of metabolism and then fitted it to the metabolism measured in ex vivo viable skin.
An additional safety factor of 3.3 was applied to account for intra-individual variability.

[2] = in vivo; cited from earlier work
Androgen pathway = system: Androgen pathway; design: method as in ToxCast; conditions: ref ToxCast, cited from earlier work; on Androgen pathway: Cell Proliferation, Call: key: Pos = positive result; Neg = negative result; Inc = uncertain/inconclusive result; on Androgen pathway: Dimerization, Call: key: Pos = positive result; Neg = negative result; Inc = uncertain/inconclusive result; on Androgen pathway: Receptor binding, Call: key: Pos = positive result; Neg = negative result; Inc = uncertain/inconclusive result; on Androgen pathway: Reporter protein Agonist, Call: key: Pos = positive result; Neg = negative result; Inc = uncertain/inconclusive result
THRα = system: THRα; design: method as in ToxCast; conditions: ref ToxCast; cited from earlier work

Chain of COX1 (h) (P23219 24-599): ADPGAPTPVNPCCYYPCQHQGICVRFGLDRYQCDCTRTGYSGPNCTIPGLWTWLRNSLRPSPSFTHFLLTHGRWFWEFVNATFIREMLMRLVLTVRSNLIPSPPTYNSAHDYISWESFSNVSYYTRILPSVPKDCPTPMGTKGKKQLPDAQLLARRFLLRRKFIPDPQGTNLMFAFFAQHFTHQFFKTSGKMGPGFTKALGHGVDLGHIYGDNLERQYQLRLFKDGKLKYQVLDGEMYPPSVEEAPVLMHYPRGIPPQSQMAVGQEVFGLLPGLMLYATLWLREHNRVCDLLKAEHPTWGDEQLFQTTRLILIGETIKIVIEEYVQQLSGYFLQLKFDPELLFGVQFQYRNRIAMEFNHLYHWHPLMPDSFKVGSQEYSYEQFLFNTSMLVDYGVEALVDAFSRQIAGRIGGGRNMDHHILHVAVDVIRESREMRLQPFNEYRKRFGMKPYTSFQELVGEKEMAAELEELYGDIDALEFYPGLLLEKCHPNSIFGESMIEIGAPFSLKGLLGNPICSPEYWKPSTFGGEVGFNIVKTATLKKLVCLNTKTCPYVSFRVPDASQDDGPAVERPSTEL

## O=c1c(-c2ccc(O)cc2)coc2cc(O)cc(O)c12 [Genistein, 5,7-DIHYDROXY-3-(4-HYDROXYPHENYL)-4-BENZOPYRONE]
COX2 (h)
  IC50: 13.6 µM
  inhibition at 10 µM: 53.8%
ER
  ER agonist, Experimental: Active (medium)
  ER antagonist, Experimental: Active (weak)
  ER binding, Experimental: Active (medium)
dogs
  NOAEL, 4 weeks: > 500 mg/kg/day
  NOAEL, 52 weeks: > 500 mg/kg/day
MAO-A
  inhibition at 10 µM: 86%
Adenosine A1 (h)
  IC50: 9.12 µM
  inhibition at 10 µM: 53.5%
MCF-7 cells
  Lowest median BMD, 3 genes passing all filters: 0.0065 µM
  Lowest median BMD, >5 genes passing all filters: 0.051 µM
  BMD relating to estrogen effects: 60.1 - estrogen 2-hydroxylase activity ↓ µM
COX1 (h)
  IC50: 7.69 µM
Transthyretin (TTR)
  TTR LOEC, Inhibition of binding of T4 to TTR: 0.21 µM
Transthyretin (TTR); +S9 (preincubation with rat liver S9)
  TTR binding (thyroid) LOEC, +S9: −6.7 Log M
Transthyretin (TTR); inhibition of binding of T4 to TTR
  LOEC for inhibition of TTR binding: 2.1 × 10^−7 ± 6.7 × 10^−8
Transthyretin (TTR); −S9
  TTR binding (thyroid) LOEC, −S9: −6.7 Log M

## O=c1c(-c2ccc(O)cc2)coc2cc(O)ccc12 [Daidzein, DAIDZEIN]
[1]; 0.02% daidzein
  BERs derived using unbound plasma concentrations: 100–250
[1]; body lotion with 0.02% daidzein
  BER, Cmax, total CI5%: 10/0.68 = 14.7
[1]; body lotion with 0.1% daidzein
  BER, Cmax, total CI5%: 10/3.37 = 3.0
COX2 (h)
  inhibition at 10 µM: 21.6%
ER
  ER agonist, Experimental: Active (medium)
  ER binding, Experimental: Active (weak)
[2]
  Highest measured plasma concentration: 3.14 µM
MAO-A
  IC50: 9.18 µM
  inhibition at 10 µM: 49.6%
Androgen pathway
  Androgen pathway: Cell Proliferation, Call: Neg
  Androgen pathway: Dimerization, Call: Neg
  Androgen pathway: Receptor binding, Call: Neg
  Androgen pathway: Reporter protein Agonist, Call: Neg
  Androgen pathway: Reporter protein Antagonist, Call: Inc
  Androgen pathway: mRNA induction, Call: Neg
Androgen pathway; read-out: Androgen pathway: Reporter protein Antagonist, AC50
  AC50: 36.1 µM
Adenosine A1 (h)
  inhibition at 10 µM: 19.9%
MCF-7 cells
  Lowest median BMD, 3 genes passing all filters: 0.038 µM
  Lowest median BMD, >5 genes passing all filters: 0.084 µM
  BMD relating to estrogen effects: 21.3 - response to estrogen ↓ µM
MCF-7 cells; MCF-7 cells
  Lowest median BMD (BMD/NOEC, gene pathway deregulation): 38 nM
COX1 (h); read-out: COX1 (h): % inhibition @10 µM
  inhibition at 10 µM: 44.7%
THRα
  Thyroid pathway: Receptor binding (THRα), Call: Neg (Neg = negative result)

Reference: PMC11220827 (Frontiers in Pharmacology, 2024)
